# Experimental data taken from patent US6703385B1, “Tricyclic compounds having sPLA2-inhibitory activities” (Shionogi & Co., Ltd., priority 1999, dated 2004).
# What was measured:
# type II sPLA2 = target: T1, type II sPLA2 (Homo sapiens, UniProt P14555); experiment: Inhibition test of human secretory phospholipase A2, chromogenic assay, type II enzyme; type: biochemical; conditions: Inhibitory activity of type II sPLA2
# T1 sequence (P14555 21-144): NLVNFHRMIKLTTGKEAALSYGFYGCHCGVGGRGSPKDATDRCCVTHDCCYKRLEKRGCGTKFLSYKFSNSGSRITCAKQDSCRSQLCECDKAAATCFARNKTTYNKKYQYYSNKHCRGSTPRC
# Excerpt: In order to identify and evaluate an inhibitor of recombinant human secretory phospholipase A2, the following chromogenic assay is utilized. The assay herein has been applied for high volume screening wherein 96 well microtiterplate is used. A general explanation for such assay is described in “Analysis of Human Synovial Fluid Phospholipase A2 on Short Chain Phosphatidylcholine-Mixed Micelles: Development of a Spectrophotometric Assay Suitable for a Microtiterplate Reader” (Analytical Biochemistry, 204, pp 190-197, 1992 by Laure. J. Reynolds. Lori L. Hughes and Edward A. Dennis: the disclosure of which is incorporated herein for reference.
# Type II enzyme: 1 mg of sPLA2 is dissolved in 1 ml of an enzyme buffer. Thereafter, the solution is maintained at 4° C. In the assay, 5 μl of the solution is diluted with 1995 μl of the reaction buffer to be used.
# 1) 0.106 ml of the substrate solution is put in a centrifugal tube, and nitrogen gas is jetted to remove the solvent. 0.54 ml of Triton-X 100 is added thereto, the mixture is stirred, thereafter it is sonified in a bath type sonification to dissolve. To the resulting product are added 17.8 ml of the reaction buffer and 0.46 ml of DTNB, and 0.18 ml each of the admixture is poured to wells of the 96 well microtiterplate.
# 2) 10 μl of a test compound (or solvent blank) are added in accordance with alignment of plates which has been previously set.
# 3) Incubation is effected at 40° C. for 15 minutes.
# 4) 90 ng/well in case of human type I enzyme, 50 ng/well in case of human type II enzyme, 40 μl/well in case of human type V enzyme, 15 μl/well in case of human type X enzyme were reacted.
# 5) Changes in absorbancy for 30 minutes for humane type I, type II, and type X enzyme and for 45 min for human type V enzyme, are measured by a plate reader, and inhibition activity was calculated (OD: 405 nm).
# 6) IC50 was determined by plotting log concentration with respect to inhibition values within 10% to 90% inhibiting range.
melting point,IC50 (type II sPLA2),Structure (SMILES)
225 to 227 °C (dec.),789 nM,COC(=O)COc1cccn2c3c(c(C(=O)C(N)=O)c12)CCC=C3c1ccccc1 [Compound I-1]
228 to 230 °C (dec.),45 nM,NC(=O)C(=O)c1c2c(n3cccc(OCC(=O)O)c13)C(c1ccccc1)=CCC2 [Compound I-2]
198 to 199 °C,1590 nM,COC(=O)COc1cccn2c3c(c(C(=O)C(N)=O)c12)CCCC3c1ccccc1 (stereo not drawn) [Compound I-3]
,54 nM,NC(=O)C(=O)c1c2c(n3cccc(OCC(=O)O)c13)C(c1ccccc1)CCC2 (stereo not drawn) [Compound I-4]
,4570 nM,CC(=O)N1CCc2c(C(=O)C(N)=O)c3c(OCC(=O)O)cccn3c2C1c1ccccc1 (stereo not drawn) [Compound I-6]
,262 nM,NC(=O)C(=O)c1c2c(n3cccc(OCC(=O)O)c13)C(c1ccccc1)N(C(=O)C(F)(F)F)CC2 (stereo not drawn) [Compound I-8]
,5680 nM,COC(=O)COc1cccn2c1c(C(=O)C(N)=O)c1scc(-c3ccccc3)c12 [Compound I-11]
,178 nM,NC(=O)C(=O)c1c2scc(-c3ccccc3)c2n2cccc(OCC(=O)O)c12 [Compound I-12]
,34 nM,NC(=O)C(=O)c1c2c(n3ccnc(OCC(=O)O)c13)C(c1ccccc1)=CCC2 [Compound I-14]
